What was measured:
[1] = molecular target: T1, Beta-adrenergic receptor kinase 1 (Homo sapiens) (UniProt P25098); experiment: Selectivity interaction (KinomeScan (DiscoverX)) EUB0000229b ADRBK1; conditions: at 10 µM
T1 sequence (whole entry): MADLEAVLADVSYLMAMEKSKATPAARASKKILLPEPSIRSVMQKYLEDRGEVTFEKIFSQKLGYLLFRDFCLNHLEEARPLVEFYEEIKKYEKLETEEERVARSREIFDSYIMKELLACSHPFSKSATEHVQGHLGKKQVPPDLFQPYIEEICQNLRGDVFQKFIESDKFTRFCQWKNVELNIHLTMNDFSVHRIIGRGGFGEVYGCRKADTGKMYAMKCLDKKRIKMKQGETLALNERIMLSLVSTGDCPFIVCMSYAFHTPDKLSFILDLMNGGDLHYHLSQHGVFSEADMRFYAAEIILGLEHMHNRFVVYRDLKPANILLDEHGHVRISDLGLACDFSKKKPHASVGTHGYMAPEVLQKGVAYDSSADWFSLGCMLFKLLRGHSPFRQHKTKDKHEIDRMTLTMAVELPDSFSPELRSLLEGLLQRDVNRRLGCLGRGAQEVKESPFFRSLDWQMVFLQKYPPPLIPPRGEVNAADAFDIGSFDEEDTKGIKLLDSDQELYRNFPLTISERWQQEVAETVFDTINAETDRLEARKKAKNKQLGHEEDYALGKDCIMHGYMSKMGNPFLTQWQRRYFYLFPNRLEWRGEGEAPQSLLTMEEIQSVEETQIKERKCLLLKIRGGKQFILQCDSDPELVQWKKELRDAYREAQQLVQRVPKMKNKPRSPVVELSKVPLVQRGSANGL

[2] = molecular target: T2, Megakaryocyte-associated tyrosine-protein kinase (Homo sapiens) (UniProt P42679); experiment: Selectivity interaction (KinomeScan (DiscoverX)) EUB0000666a MATK; conditions: at 10 µM
T2 sequence (whole entry): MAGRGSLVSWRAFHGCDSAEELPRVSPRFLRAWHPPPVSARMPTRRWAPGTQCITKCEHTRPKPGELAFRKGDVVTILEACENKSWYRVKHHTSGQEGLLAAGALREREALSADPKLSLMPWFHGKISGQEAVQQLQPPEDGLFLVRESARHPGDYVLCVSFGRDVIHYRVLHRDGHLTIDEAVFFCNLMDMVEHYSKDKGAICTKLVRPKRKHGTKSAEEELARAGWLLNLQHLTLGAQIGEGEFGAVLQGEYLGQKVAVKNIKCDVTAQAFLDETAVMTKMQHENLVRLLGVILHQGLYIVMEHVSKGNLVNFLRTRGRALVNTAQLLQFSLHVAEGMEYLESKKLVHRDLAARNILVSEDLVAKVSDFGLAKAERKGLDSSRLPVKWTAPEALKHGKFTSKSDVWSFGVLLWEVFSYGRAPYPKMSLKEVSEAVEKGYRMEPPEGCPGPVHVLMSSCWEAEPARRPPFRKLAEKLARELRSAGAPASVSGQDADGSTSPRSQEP

[3] = molecular target: Glycogen synthase kinase-3 alpha (Homo sapiens, UniProt P49840); experiment: Selectivity interaction (KinomeScan (DiscoverX)) EUB0000666a GSK3A; conditions: at 10 µM
Glycogen synthase kinase-3 alpha, sequence (P49840 2-483 limits assumed): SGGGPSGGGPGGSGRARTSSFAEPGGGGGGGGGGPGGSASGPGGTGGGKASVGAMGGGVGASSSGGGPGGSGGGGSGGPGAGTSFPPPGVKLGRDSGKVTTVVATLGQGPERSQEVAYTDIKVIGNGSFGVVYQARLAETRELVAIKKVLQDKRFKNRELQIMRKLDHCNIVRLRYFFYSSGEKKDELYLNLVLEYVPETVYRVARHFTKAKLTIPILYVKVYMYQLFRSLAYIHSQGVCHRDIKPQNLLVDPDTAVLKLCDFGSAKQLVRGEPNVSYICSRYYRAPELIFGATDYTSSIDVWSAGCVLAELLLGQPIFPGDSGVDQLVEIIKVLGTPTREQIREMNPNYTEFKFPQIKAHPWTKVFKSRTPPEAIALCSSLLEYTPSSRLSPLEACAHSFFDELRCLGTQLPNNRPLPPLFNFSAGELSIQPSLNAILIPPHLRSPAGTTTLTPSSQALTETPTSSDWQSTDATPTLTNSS

[4] = molecular target: 5'-AMP-activated protein kinase catalytic subunit alpha-1 (Homo sapiens, UniProt Q13131); conditions: at 10 µM
[5] = molecular target: Polycystin-1 (Homo sapiens) (UniProt P98161); experiment: Selectivity interaction (ActivX KiNativ screen (kinase selectivity in THP-1 cell lysates)) EUB0000639a PKD1; assay type: subcellular; conditions: lysate
Polycystin-1 (Homo sapiens), sequence (P98161 24-4303 limits assumed): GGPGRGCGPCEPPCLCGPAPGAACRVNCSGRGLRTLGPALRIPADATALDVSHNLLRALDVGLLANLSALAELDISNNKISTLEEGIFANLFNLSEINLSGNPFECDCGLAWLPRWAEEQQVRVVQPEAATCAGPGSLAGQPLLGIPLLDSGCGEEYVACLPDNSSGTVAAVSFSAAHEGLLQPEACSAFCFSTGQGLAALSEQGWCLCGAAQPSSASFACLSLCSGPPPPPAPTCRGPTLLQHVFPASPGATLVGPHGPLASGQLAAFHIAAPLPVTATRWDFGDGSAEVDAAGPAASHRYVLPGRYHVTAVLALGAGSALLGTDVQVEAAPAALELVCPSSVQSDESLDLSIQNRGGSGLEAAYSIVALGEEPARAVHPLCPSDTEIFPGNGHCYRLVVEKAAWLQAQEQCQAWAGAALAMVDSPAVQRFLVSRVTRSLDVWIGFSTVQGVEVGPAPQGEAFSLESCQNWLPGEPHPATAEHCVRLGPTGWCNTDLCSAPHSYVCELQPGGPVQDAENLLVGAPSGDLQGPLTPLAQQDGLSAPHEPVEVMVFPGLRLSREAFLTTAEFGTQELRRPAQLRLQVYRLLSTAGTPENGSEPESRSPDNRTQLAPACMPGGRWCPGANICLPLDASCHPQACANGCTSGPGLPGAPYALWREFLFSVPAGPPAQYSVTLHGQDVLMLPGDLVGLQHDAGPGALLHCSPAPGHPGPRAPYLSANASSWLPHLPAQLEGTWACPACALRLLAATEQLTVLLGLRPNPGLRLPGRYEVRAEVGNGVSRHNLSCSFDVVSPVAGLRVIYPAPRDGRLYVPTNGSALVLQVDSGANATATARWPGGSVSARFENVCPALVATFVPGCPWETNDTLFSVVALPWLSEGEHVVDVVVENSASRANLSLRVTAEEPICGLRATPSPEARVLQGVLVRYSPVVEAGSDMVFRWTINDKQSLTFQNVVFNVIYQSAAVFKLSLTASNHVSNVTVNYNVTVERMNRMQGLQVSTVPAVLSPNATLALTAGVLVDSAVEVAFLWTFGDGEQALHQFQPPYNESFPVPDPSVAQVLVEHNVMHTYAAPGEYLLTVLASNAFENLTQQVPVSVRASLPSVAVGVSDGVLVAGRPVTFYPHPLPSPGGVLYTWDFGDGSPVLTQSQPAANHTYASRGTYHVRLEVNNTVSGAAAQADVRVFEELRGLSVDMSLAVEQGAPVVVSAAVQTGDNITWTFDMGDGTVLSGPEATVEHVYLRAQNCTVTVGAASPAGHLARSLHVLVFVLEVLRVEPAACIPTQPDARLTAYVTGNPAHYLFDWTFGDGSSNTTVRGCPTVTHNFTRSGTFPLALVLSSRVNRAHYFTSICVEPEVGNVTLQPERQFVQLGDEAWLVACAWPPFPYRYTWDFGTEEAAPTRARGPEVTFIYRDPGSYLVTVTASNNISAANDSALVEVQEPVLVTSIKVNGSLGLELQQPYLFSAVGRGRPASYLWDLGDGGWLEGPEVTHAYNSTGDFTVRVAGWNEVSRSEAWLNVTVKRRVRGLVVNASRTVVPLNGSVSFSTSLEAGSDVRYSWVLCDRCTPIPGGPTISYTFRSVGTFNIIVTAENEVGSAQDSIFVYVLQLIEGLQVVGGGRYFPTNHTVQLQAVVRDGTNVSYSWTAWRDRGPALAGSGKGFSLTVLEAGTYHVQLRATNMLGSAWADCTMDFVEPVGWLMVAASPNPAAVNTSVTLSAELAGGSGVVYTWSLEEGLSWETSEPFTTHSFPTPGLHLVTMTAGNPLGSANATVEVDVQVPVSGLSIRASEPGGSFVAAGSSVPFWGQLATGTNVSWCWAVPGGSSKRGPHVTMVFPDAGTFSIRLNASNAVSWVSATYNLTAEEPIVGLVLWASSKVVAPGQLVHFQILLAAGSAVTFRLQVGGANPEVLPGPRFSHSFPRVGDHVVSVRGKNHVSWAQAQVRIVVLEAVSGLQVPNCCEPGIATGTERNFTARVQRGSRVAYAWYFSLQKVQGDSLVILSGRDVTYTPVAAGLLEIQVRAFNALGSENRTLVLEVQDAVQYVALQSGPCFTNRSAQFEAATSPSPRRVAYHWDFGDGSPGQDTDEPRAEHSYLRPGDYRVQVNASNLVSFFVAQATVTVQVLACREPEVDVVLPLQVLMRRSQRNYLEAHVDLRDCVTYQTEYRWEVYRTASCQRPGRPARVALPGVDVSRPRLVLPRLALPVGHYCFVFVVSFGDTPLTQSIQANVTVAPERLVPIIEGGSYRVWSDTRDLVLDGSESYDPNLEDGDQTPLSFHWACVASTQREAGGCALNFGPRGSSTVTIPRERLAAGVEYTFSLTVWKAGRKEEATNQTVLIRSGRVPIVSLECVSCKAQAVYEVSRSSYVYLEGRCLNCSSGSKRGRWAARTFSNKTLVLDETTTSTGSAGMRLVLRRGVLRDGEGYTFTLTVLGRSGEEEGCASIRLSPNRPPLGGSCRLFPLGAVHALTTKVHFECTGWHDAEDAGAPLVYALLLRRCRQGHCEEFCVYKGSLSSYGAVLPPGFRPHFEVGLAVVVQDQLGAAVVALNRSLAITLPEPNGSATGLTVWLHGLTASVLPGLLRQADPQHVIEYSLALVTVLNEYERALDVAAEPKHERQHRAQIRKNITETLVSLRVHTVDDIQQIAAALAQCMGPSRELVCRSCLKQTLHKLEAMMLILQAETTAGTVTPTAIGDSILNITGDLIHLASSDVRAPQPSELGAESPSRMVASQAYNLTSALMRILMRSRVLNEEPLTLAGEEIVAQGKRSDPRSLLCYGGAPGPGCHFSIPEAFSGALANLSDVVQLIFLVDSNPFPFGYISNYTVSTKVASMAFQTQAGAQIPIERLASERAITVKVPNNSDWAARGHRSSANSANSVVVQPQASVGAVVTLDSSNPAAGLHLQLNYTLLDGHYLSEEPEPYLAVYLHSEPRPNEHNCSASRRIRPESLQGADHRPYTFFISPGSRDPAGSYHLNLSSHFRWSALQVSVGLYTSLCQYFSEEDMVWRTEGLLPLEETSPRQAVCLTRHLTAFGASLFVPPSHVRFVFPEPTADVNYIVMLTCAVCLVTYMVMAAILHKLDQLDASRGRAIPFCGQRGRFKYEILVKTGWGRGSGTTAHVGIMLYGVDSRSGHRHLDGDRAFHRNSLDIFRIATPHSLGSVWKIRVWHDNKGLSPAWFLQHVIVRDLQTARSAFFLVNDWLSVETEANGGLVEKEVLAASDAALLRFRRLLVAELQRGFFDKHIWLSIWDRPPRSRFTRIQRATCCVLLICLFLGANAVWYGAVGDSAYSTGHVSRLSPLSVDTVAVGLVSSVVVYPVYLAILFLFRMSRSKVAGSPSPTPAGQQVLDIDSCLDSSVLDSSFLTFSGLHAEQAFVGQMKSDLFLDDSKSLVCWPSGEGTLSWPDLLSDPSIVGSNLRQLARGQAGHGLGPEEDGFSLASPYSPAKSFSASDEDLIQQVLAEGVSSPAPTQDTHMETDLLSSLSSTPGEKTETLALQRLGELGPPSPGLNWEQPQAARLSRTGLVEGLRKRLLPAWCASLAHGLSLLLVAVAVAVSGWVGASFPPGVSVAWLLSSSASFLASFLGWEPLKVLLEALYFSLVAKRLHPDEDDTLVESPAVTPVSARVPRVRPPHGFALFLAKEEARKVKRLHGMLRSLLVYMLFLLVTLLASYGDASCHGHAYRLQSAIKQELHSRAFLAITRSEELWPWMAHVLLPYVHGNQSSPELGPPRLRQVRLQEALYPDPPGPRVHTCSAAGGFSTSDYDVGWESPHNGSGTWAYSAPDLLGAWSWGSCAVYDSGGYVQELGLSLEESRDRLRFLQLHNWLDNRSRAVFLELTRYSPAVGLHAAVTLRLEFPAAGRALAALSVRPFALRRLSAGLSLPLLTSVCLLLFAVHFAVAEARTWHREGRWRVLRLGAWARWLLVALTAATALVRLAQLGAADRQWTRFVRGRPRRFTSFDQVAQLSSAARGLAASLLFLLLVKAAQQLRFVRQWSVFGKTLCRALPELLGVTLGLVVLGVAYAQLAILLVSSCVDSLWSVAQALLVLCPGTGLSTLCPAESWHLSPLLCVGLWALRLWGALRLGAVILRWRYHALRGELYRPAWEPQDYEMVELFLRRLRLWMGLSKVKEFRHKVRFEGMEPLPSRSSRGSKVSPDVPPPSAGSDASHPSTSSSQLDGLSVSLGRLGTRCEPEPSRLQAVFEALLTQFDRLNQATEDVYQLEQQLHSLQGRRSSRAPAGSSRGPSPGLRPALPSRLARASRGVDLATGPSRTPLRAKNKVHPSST

[6] = molecular target: STE20/SPS1-related proline-alanine-rich protein kinase (Homo sapiens) (UniProt Q9UEW8); experiment: Selectivity interaction (KinomeScan (DiscoverX)) EUB0000655a STK39; conditions: at 10 µM
[7] = molecular target: Tyrosine-protein kinase ABL2 (Homo sapiens, UniProt P42684); experiment: Selectivity interaction (KinomeScan (DiscoverX)) EUB0000092b ABL2; conditions: at 10 µM
[8] = molecular target: T3, Serine/threonine-protein kinase 36 (Homo sapiens) (UniProt Q9NRP7); experiment: Selectivity interaction (KinomeScan (DiscoverX)) EUB0000092b STK36; conditions: at 10 µM
T3 sequence (whole entry): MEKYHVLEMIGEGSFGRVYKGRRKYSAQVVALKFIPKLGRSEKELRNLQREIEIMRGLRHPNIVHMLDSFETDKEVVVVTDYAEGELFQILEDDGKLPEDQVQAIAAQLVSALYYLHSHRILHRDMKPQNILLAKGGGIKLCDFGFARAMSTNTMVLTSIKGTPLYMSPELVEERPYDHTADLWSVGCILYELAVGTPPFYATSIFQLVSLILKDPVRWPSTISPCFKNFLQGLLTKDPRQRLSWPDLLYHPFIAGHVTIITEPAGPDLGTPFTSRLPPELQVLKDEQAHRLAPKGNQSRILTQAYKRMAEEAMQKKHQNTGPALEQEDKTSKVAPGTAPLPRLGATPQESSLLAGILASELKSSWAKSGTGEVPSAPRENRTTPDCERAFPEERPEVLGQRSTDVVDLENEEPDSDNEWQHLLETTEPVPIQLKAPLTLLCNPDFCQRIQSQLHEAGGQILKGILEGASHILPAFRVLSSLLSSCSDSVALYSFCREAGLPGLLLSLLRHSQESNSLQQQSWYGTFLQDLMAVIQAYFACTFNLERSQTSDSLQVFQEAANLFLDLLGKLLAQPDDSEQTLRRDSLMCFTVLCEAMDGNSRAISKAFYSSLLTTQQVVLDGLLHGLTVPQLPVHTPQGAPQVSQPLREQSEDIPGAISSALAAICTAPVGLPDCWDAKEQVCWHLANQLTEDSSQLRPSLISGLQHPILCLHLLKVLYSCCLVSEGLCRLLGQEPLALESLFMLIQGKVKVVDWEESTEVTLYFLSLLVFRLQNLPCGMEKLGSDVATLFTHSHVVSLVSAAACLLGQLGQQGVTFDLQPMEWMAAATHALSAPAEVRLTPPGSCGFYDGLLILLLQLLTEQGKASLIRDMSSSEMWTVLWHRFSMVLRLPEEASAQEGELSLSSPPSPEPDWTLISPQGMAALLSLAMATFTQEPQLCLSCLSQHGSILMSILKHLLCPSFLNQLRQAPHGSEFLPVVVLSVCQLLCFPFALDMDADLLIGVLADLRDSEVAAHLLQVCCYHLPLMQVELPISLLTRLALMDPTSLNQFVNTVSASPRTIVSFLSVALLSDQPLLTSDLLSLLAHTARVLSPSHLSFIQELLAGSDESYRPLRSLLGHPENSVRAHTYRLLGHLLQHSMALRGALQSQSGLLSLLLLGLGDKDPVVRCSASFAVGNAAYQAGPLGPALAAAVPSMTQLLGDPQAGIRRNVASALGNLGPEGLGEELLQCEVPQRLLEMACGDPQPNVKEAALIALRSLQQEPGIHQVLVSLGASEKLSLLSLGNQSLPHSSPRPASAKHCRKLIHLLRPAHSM

`COc1cc(N(C)c2ccnc3ccc(C(F)(F)F)cc23)cc(OC)c1OC` showed a % binding [1] of 92%.

Work on `O=C(NOC[C@H](O)CO)c1ccc(F)c(F)c1Nc1ccc(I)cc1F` yielded a % of control [2] of 100% and a % of control [3] of 90%.

`Cc1cc([C@@H](C)Nc2ccccc2C(=O)O)c2nc(N3CCOCC3)cc(=O)n2c1` [AZD-6482] was tested, and the % of control [4] was 100%.

In the case of `CC[C@@H]1[C@H](F)C(=O)N[C@@H]1COc1nccc2cc(C(N)=O)c(OC)cc12` [ZIMLOVISERTIB], the % of inhibition ([5]; at 0.01 µM) is reported as -7.2%, the % of inhibition ([5]; at 0.04 µM) is reported as -3.5% and the % of inhibition ([5]; at 0.2 µM) is reported as -8.9%. The % of inhibition ([5]; at 1 µM) was 8% and the % of inhibition ([5]; at 5 µM) was 8.9%.

For `CN(C)CCOc1ccc(-c2nc(-c3ccncc3)c(-c3ccc4c(c3)CC/C4=N\O)[nH]2)cc1`, the % of control [6] was 100%.

Compound `CCC(=O)N1CCN(c2ccc(-n3c(=O)ccc4cnc5ccc(-c6cnc7ccccc7c6)cc5c43)cc2C(F)(F)F)CC1` has a % of control [7] of 99% and a % of control [8] of 17%.

— ChEMBL document CHEMBL5465560, “Selectivity Literature for EUbOPEN Chemogenomic Library” (2024)
